SMILES strings stand for the structures.

From patent US4877795A, “4H-quinolizin-4-one compounds useful for the treatment of allergic bronchial asthma, allergic rhinitis atropic dermatitis and the like” (Kissei Pharmaceutical Co., Ltd., priority 1987, dated 1989) come the findings set out here.

One test concerns IgE. In words: Determination of Igs produced in in vitro culture: inhibition of IgE secreted by spleen cells (adoptive secondary immune response to DNP-As), ELISA. It counts as cell-based, BALB/c mice. The conditions noted are these: 4 days culture; for inhibition at 2.5 µg/mL: 2.5 μg/ml; for inhibition at 10 µg/mL: 10.0 μg/ml; for inhibition at 1 µg/mL / Inhibition % of IgE: 1.0 μg/ml. In outline: (§1)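 Donor BALB/c mice primed i.p. with 5 μg DNP-As on alum; 5×10^7 spleen cells transferred i.v. into 600-rad-irradiated recipients, boosted likewise. After 4 weeks, recipient spleen cells (5×10^6 cells/ml) cultured ± compound 4 days at 37° C; secreted IgG/IgE quantified by ELISA, % inhibition vs untreated culture.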
In general terms: An ELISA detects its analyte on a solid surface through an enzyme-linked reagent.

In a further test the test system is IgG. In words: Determination of Igs produced in in vitro culture: inhibition of IgG secreted by spleen cells (adoptive secondary immune response to DNP-As), ELISA. The conditions noted are these: 4 days culture; for inhibition at 2.5 µg/mL: 2.5 μg/ml; for inhibition at 10 µg/mL: 10.0 μg/ml; for inhibition at 1 µg/mL / Inhibition % of IgG: 1.0 μg/ml. It counts as cell-based, BALB/c mice. In outline: as §1

What is called inhibition is the share of the control response that was lost under treatment. Read a low inhibition as a response near the control. Take `CSc1c(C#N)c(=O)n2ccccc2c1C(=O)Cc1cccc(C)c1` [S-97, 3-Cyano-1-(3-methylphenylacetyl)-2-methylthio-4H-quinolizin-4-one]: the inhibition at 2.5 µg/mL with IgE (Mus musculus, 96 h) worked out at 46%; with IgG (Mus musculus, 96 h) it was 18%.
As for `CSc1c(C#N)c(=O)n2ccccc2c1C(=O)Cc1ccccc1C` [S-98, 3-Cyano-1-(2-methylphenylacetyl)-2-methylthio-4H-quinolizin-4-one], the inhibition at 10 µg/mL is 38% in the test on IgE (Mus musculus, 96 h) and 13% with IgG (Mus musculus, 96 h).
For the compound `CSc1c(C#N)c(=O)n2ccccc2c1C(=O)Cc1ccc(C)cc1` [S-99, 3-Cyano-1-(4-methylphenylacetyl)-2-methylthio-4H-quinolizin-4-one], the inhibition at 10 µg/mL in the test with IgE (Mus musculus, 96 h) was found to be 52%; in the test with IgG (Mus musculus, 96 h), 1%.
As to `CSc1c(C#N)c(=O)n2ccccc2c1C(=O)Cc1ccc(C)cc1C` [S-100, 3-Cyano-1-(2,4dimethylphenylacetyl)-2-methylthio-4H-quinolizin-4-one], the inhibition at 2.5 µg/mL in the test on IgE (Mus musculus, 96 h) worked out at 63%; with IgG (Mus musculus, 96 h), 34%.
As to `CSc1c(C#N)c(=O)n2ccccc2c1C(=O)Cc1ccc(C)c(C)c1` [S-101, 3-Cyano-1-(3,4-dimethylphenylacetyl)-2-methylthio-4H-quinolizin-4-one], the inhibition at 40 µg/mL stood at 58% in the test on IgE (Mus musculus, 96 h, 40.0 μg/ml) and 13% in the test with IgG (Mus musculus, 96 h, 40.0 μg/ml).
Turning to `COc1ccc(CC(=O)c2c(SC)c(C#N)c(=O)n3ccccc23)cc1` [S-102, 3-Cyano-1-(4-methoxyphenylacetyl)-2-methylthio-4H-quinolizin-4-one], the inhibition at 10 µg/mL with IgE (Mus musculus, 96 h) was determined as 52%; in the test with IgG (Mus musculus, 96 h), 20%.
Regarding `CSc1c(C#N)c(=O)n2ccccc2c1C(=O)Cc1cccc2ccccc12` [S-103, 3-Cyano-2-mehtylthio-1-(1-naphthylacetyl)-4H-quinolizin-4-one], the inhibition at 2.5 µg/mL came out at 49% with IgE (Mus musculus, 96 h) and 15% in the test with IgG (Mus musculus, 96 h).
Taken in the same sequence, the figures for `CSc1c(C#N)c(=O)n2ccccc2c1C(=O)CCc1ccccc1` [S-104, 3-Cyano-2-methylthio-1-(3-phenylpropionyl)-4H-quinolizin-4-one] were 66% and 39%.
With `CSc1c(C#N)c(=O)n2ccccc2c1C(=O)CCCc1ccccc1` [S-105, 3-Cyano-2-methylthio-1-(4-phenylbutyryl)-4H-quinolizin-4one], the inhibition at 1 µg/mL came out at 65% with IgE (Mus musculus, 96 h) and 21% in the test with IgG (Mus musculus, 96 h).
Consider `CSc1c(C#N)c(=O)n2ccccc2c1C(=O)CCCc1cccs1` [S-106, 3-Cyano-2-methylthio-1-(4-thienylbutyryl)-4H-quinolizin-4-one], for which the “Inhibition % of IgE” value with IgE worked out at 61%. Also, the “Inhibition % of IgG” value in the test with IgG worked out at 26%.
Regarding `CSc1c(C#N)c(=O)n2ccccc2c1C(=O)CCCCc1ccccc1` [S-107, 3-Cyano-2-methylthio-1-(5-phenylvaleryl)-4H-quinolizin-4-one], the inhibition at 1 µg/mL with IgE (Mus musculus, 96 h) turned out to be 80%; in the test on IgG (Mus musculus, 96 h) it was 43%.
The matching figures for `CSc1c(C#N)c(=O)n2ccc(C)cc2c1C(=O)CCCCc1ccccc1` [S-108, 3-Cyano-8-methyl-2-methylthio-1-(5-phenylvaleryl)-4H-quinolizin-4-one]: 60% and 35%.
On to `CSc1c(C#N)c(=O)n2ccccc2c1C(=O)CC1CCN(c2ccccc2)CC1` [S-109, 3-Cyano-2-methylthio-1-(1-phenyl-4-piperidylacetyl)-4-quinolizin-4-one], for which the “Inhibition % of IgE” value with IgE came to 77%. The “Inhibition % of IgG” value in the test with IgG was determined as 54%.
